ChEMBL document CHEMBL1201862, “PubChem BioAssay data set” (2004)
Active and inactive are the calls of the source.

How the values were obtained:
HEK293 = experiment: Fluorescence-based counterscreen for potentiators or agonists of NPY-Y2: cell-based high-throughput dose response assay to identify inhibitors of cyclic nucleotide gated ion channel (CNGC) activity. In this assay, the parental HEK293 cell line transfected with a cyclic-nucleotide gated ion channel (CNGC)-based cAMP sensor is used to measure inhibition of isoproterenol-induced CNGC activity by test compound.; assay type: functional; settings: Homo sapiens;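 also: stimulus is 1 µM isoproterenol at EC100 plus PDE inhibitor Ro 20-1724 at 25 µM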
[1] = target: Neuropeptide Y receptor type 2 (Homo sapiens, UniProt P49146); experiment: Fluorescence-based cell-based high-throughput dose response assay for agonists of NPY-Y2. [Related pubchem assays: 1703 (Screening assay (CNGC inhibitors).), 1359 (Screening assay (NPY-Y2 potentiators or agonists).), 1304 (Screening assay (NPY-Y1 potentiators or agonists).), 1710 (Screening assay (NPY-Y2 agonists).), 1791 (Summary AID.)]; assay type: functional
[2] = target: T1, Eukaryotic translation initiation factor 2-alpha kinase 3 (Homo sapiens, UniProt Q9NZJ5); experiment: Counterscreen assay for PERK inhibitors: Dose response cell-based high throughput screening assay to measure inhibition of PERK at 6 hours. [Related pubchem assays: 1522, 1416 ]; assay type: functional
[3] = target: T1, Eukaryotic translation initiation factor 2-alpha kinase 3; experiment: Dose response cell-based high-throughput screening assay to measure PERK inhibition. [Related pubchem assays: 1416 ]; assay type: functional
[4] = target: Neuropeptide Y receptor type 1 (Homo sapiens, UniProt P25929); experiment: Fluorescence-based counterscreen for agonists of NPY-Y2: cell-based high-throughput dose response assay for agonists of NPY-Y1.; assay type: functional
[5] = target: Mothers against decapentaplegic homolog 3 (Homo sapiens, UniProt P84022); experiment: Smad3 binding inhibitors, lysate ELISA, dose response, cell lysate, secondary confirmation, chemiluminescent ELISA, HEK293 lysate (AID 1058); assay type: functional
[6] = Luminescence Cell-Based Dose Confirmation HTS to Identify Inhibitors of Platelet Dense Granule Release. [Related pubchem assays: 1663 (Primary HTS), 1678 (Summary of Project)]; assay type: functional
[7] = cytotoxicity in HEK-293T cells, dose response, cytotoxicity control for BCR NF-kB inhibitor project, luminescence, B-cell screen hits (AID 489021); assay type: functional, cell-based;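 also: HEK-293T cells carrying an NF-kB luciferase reporter; cells exposed to compound for about 14 hours before viability readout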
[8] = target: Luciferin 4-monooxygenase (Photinus pyralis, UniProt P08659); experiment: firefly luciferase enzyme inhibitors, dose response, biochemical, luminescence (AID 1891)
[9] = target: Polyadenylate-binding protein 1 (Homo sapiens, UniProt P11940); experiment: PABP poly(A) RNA binding inhibitors, primary screen, biochemical, fluorescence polarization, uHTS (AID 2014)
[10] = target: Eukaryotic translation initiation factor 4H (Homo sapiens, UniProt Q15056); experiment: human eIF4H binding inhibitors, primary screen, translation initiation inhibitor project, biochemical, uHTS, fluorescence polarization (AID 2012)
X-box-binding protein 1 = X-box-binding protein 1 (Homo sapiens, UniProt P17861); assay type: functional, Cricetulus griseus;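 also: confirmatory dose-response counter-screen serving a CHOP assay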
[11] = target: DNA damage-inducible transcript 3 protein (Mus musculus, UniProt P35639); assay type: functional, Cricetulus griseus
cells [12] = assay type: functional, cell-based
[13] = target: Potassium voltage-gated channel subfamily KQT member 2 (Rattus norvegicus, UniProt O88943); experiment: retigabine-insensitive KCNQ2 potentiators, concentration-response, dose response, cell-based, retigabine-insensitive compounds (AID 2654); assay type: functional
cells [14] = assay type: functional, cell-based; remark: listed apart in the source
[15] = target: T2, Trace amine-associated receptor 1 (Homo sapiens, UniProt Q96RJ0); experiment: Fluorescence-based cell-based high throughput dose response assay to identify agonists of the human trace amine associated receptor 1 (TAAR1).; assay type: functional
T2 sequence (Q96RJ0 whole entry): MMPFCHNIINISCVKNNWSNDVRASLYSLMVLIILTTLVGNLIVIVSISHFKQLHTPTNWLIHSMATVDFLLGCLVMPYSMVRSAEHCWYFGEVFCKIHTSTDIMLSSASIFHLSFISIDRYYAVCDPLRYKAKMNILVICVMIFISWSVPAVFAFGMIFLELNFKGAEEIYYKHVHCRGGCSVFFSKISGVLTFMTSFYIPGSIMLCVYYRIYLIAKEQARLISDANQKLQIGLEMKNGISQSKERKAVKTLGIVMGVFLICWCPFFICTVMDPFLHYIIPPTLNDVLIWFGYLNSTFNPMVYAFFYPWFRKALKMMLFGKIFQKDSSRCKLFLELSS

[16] = target: T2, Trace amine-associated receptor 1; experiment: Counterscreen for agonists of the human trace amine associated receptor 1 (hTAAR1): Fluorescence-based cell-based high throughput dose response assay to identify hTAAR1 agonist that also desensitize TAAR1 receptor response.; assay type: functional
[17] = target: Dual specificity protein phosphatase 3 (Homo sapiens, UniProt P51452); experiment: VHR1 inhibitor Ki determination, SAR follow-up, biochemical, colorimetric (AID 2004)
Dual specificity protein phosphatase 3, sequence (P51452 whole entry): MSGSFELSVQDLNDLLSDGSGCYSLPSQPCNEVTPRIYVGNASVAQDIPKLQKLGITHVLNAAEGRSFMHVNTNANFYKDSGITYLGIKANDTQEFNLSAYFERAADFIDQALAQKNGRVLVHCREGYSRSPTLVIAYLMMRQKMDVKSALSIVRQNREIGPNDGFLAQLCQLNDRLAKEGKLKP

T1 sequence (Q9NZJ5 whole entry): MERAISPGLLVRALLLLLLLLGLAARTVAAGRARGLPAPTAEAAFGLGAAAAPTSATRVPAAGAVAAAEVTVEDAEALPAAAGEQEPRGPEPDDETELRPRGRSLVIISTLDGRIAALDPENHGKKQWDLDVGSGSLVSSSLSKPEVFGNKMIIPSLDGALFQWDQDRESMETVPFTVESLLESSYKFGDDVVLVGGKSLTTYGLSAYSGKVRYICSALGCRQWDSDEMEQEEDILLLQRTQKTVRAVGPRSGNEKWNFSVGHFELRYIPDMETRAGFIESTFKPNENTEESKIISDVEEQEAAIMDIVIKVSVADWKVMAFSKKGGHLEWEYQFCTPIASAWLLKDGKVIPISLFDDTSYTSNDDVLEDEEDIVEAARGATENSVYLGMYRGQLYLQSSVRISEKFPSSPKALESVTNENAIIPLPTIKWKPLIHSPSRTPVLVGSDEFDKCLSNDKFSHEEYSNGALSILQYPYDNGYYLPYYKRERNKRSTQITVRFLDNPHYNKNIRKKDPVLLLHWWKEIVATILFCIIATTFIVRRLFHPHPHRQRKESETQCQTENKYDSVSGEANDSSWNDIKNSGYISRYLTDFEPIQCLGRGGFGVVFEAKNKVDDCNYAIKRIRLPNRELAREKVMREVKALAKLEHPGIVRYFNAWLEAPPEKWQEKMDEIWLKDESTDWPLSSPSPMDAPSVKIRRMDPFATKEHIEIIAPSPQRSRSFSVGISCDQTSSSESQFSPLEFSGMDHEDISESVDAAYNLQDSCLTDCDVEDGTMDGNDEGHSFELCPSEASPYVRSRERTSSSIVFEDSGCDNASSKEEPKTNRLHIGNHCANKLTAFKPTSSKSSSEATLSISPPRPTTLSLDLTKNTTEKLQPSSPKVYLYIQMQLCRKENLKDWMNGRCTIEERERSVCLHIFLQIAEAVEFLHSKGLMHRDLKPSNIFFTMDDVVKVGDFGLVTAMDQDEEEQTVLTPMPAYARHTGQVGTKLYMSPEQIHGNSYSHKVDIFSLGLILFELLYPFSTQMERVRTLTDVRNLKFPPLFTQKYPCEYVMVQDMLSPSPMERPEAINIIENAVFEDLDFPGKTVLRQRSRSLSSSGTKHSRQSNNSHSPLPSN
Polyadenylate-binding protein 1, sequence (P11940 whole entry): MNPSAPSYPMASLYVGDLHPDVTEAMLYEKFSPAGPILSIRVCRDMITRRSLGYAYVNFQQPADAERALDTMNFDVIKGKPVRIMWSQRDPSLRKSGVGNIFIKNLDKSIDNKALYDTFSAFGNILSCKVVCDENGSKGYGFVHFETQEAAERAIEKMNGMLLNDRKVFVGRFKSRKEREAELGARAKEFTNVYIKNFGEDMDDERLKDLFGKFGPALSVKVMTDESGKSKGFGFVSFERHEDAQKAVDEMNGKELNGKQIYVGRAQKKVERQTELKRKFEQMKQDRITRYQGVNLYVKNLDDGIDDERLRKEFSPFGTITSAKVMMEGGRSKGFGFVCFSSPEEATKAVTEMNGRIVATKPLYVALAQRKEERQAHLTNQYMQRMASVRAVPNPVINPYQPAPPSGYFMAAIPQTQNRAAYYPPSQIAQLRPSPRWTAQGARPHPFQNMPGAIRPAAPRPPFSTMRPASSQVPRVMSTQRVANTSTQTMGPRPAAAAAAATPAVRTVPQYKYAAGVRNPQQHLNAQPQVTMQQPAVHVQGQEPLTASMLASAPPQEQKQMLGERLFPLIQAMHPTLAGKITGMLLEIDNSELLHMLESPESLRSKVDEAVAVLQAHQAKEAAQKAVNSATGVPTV
Luciferin 4-monooxygenase, sequence (P08659 whole entry): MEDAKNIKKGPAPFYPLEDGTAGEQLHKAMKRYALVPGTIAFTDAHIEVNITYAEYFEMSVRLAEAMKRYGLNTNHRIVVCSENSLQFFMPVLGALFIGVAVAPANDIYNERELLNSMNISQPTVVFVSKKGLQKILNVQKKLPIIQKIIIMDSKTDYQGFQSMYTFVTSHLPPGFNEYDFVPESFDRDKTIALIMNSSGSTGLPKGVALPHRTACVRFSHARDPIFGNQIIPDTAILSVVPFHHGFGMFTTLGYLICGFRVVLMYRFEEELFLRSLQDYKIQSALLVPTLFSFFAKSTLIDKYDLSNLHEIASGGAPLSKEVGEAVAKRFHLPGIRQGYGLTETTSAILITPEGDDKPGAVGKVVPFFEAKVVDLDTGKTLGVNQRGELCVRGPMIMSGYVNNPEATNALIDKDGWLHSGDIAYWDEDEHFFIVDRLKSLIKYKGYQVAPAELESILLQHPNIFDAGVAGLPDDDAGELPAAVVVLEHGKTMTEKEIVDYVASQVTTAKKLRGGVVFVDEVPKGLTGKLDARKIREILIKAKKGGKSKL
Neuropeptide Y receptor type 2, sequence (P49146 whole entry): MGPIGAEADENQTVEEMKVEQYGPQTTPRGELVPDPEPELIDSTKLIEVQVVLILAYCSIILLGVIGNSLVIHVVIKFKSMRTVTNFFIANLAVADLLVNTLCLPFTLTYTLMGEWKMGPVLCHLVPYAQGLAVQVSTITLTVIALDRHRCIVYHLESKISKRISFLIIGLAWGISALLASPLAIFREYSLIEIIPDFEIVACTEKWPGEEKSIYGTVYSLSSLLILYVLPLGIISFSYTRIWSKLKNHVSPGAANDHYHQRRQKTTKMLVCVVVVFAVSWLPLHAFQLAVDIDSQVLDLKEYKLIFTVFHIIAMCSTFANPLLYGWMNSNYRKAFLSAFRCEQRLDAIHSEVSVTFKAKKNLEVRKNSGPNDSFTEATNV
Neuropeptide Y receptor type 1, sequence (P25929 whole entry): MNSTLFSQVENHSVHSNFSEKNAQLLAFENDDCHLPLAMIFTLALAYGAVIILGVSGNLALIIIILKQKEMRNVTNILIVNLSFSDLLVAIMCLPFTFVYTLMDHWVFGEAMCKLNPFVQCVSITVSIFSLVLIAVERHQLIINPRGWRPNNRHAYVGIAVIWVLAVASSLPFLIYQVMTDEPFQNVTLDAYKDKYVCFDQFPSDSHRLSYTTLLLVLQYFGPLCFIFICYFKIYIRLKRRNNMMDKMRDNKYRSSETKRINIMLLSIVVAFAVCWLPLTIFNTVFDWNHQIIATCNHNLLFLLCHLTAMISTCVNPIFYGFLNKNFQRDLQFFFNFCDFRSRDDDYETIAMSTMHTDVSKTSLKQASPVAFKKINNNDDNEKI
Potassium voltage-gated channel subfamily KQT member 2, sequence (O88943 whole entry): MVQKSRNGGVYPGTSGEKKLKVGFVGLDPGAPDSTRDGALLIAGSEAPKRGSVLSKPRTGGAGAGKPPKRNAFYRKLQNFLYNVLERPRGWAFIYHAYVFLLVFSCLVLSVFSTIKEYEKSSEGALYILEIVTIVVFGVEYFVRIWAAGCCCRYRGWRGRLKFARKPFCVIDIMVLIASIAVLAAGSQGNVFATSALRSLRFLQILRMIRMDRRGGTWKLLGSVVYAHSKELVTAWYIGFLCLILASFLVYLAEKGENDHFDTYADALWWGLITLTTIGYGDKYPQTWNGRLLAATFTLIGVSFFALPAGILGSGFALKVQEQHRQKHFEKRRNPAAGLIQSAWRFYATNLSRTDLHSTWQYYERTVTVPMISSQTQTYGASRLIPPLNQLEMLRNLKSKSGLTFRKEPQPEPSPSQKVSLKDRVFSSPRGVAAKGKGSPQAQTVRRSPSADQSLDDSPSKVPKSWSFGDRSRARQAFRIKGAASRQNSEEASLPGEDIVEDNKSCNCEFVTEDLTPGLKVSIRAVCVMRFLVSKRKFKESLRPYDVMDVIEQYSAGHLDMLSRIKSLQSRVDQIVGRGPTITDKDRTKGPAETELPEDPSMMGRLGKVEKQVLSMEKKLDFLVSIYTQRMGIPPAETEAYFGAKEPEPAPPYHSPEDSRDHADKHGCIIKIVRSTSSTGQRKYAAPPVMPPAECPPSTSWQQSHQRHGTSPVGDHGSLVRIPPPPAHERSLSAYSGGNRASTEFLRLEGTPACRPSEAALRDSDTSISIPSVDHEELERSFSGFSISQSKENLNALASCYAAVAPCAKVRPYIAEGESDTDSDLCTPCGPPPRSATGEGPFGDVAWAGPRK
DNA damage-inducible transcript 3 protein, sequence (P35639 whole entry): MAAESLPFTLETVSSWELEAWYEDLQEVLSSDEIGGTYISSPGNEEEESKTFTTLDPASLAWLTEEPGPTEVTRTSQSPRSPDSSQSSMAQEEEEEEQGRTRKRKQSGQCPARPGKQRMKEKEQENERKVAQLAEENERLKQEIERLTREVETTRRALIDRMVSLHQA
X-box-binding protein 1, sequence (P17861 whole entry): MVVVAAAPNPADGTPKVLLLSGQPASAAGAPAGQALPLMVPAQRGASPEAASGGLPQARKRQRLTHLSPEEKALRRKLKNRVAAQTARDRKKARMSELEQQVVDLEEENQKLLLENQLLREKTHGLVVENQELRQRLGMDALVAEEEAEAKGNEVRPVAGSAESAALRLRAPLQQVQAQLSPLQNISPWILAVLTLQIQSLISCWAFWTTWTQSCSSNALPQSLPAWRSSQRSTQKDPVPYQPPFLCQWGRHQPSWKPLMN

COCCOC(=O)C(CC(=O)O)NCc1ccco1 (centres undefined)
EC50 (HEK293): > 35.4 µM (not active) | EC50 [1]: > 35.4 µM (not active) | EC50 [2]: > 55.7 µM (not active) | EC50 [3]: > 55.7 µM (not active) | EC50 [4]: > 35.4 µM (not active)

O=c1cc2oc3cc(O)c(O)cc3c(-c3ccccc3)c-2cc1O
IC50 [5]: < 1.25 µM (not active)

CCCCn1c2c(c(=N)c3ccccc31)CCC2
EC50 [6]: 1.25 µM (active) | IC50 [7]: > 80 µM (inactive) | EC50 [8]: > 112 µM (not active) | IC50 [9]: 3.5 µM (active) | IC50 [10]: > 100 µM (inactive)

Cc1cc(C)c2nc(-c3ccccn3)cc(C(=O)Nc3cc(C)on3)c2c1
Absolute IC50 (XBP1) (X-box-binding protein 1): 10 µM | Absolute IC50 (CHOP) [11]: 10 µM

O=C(Nc1cccnc1)Nc1cccc(F)c1
EC50 (cells [12]): > 29.9 µM (inactive) | EC50 [13]: 6.28 µM (active) | IC50 (cells [14]): > 29.9 µM (inactive) | EC50 [15]: 0.675 µM (active) | IC50 [16]: 5.05 µM (active)

CC(C)=C1C(=O)NN(c2ccccc2)C1=O
Ki [17]: 71 µM (inactive)
